How the values were obtained:
IRE1a [1] = molecular target: T1, IRE1a (Homo sapiens, UniProt O75460); experiment: IRE1a Endoribonuclease Nanoluciferase Assay (XBP1 luciferase reporter in 293 T cells); format: cell-based; conditions: 293 T cells transfected with XBP1 luciferase reporter plasmid
Protocol: Compounds disclosed herein were assessed for disruption of IRE1 signaling using a IRE1a Endoribonuclease Nanoluciferase Assay. Briefly, 2.5×10^6 293 T cells were seeded in a 10 cm^2 tissue culture plate. About 24 hours later, the cells were transfected with Effectene. In a 15 mL Tube, the following was added: 2 μg XBP1 luciferase reporter plasmid (PGK-Luc2-P2A-XBP1u-Nanoluciferase-PEST); 300 μl EC buffer; and 16 μl Enhancer, followed by incubation at room temp for 5 minutes. Next, 60 μl Effectene (Qiagen 301427) was added, followed by incubation at room temperature for 10 minutes. 2.6 mL cDMEM media was added. Old media was aspirated from the cells, followed by addition of 7 mL fresh media. Full transfection mixture was added dropwise to cells. Cells were incubated for 6 hours, followed by tripsinization, centrifugation and resuspension in 11 mL media. 100 uL of cells were plated per a well in a 96 well plate. A day later, stressors of choice+/− inhibitors were added. To harvest, media was aspirated from cells completely, then 50 uL 1× passive lysis buffer (Promega: E1941) was added per well and put on shaker (300 rpm) for 30 minutes at room temperature. Cells were centrifuged, and 15 uL sample per well was added to a new, opaque white 384 well plate (Corning 3570). 15 uL OneGlo (nanoluciferase kit, Promega N1630) was added. Plates were spun down, placed on shaker (300 rpm) for 10 minutes. Plates were read on luminometer, 1000 ms integration time per well. 15 uL Stop and Glo (nanoluciferase kit) was added. Plates were spun down, placed on shaker (300 rpm) for 10 minutes. Plates were read on luminometer, 1000 ms second integration time per well. Recordings are provided below in Table 4.

IRE1a [2] = molecular target: T1, IRE1a; experiment: In vitro FRET assay (XBP1 RNA probe cleavage by IRE1a); format: biochemical; design: purchased SignalChem; conditions: SignalChem IRE1a protein 2 nM
Protocol: In vitro FRET assay was performed to evaluate the ability of select compounds to inhibit IRE1, the results of which are summarized in Table 3. To perform the in vitro FRET assay, 1× complete assay buffer (CAB; […] DTT, 50 mM sodium citrate pH 7.15, 1 mM magnesium acetate, 0.02% tween 20) was used to dilute SignalChem IRE1a protein to a final concentration of 2 nM. Selected compounds were serially diluted with DMSO in a non-binding black 384-well plate for a total of 15 ul in each well. 2 ul of the serially diluted compound or DMSO control were then added to new wells containing 98 ul of 1×CAB, for a total volume of 100 ul, 10 ul of which were then transferred to wells of a new plate. 5 ul of the diluted IRE1a was then added to each well. 5 ul of a […] XBP1 RNA probe was then added to each well. Fluorescence was then read over 30 minutes in kinetic mode (485/515 nm).
Two RNA probes were used, XBP1 wildtype (SEQ ID NO: 2) which is able to be spliced by active IRE1a or XBP1 mutant (SEQ ID NO: 3) which is unable to be spliced. Each probe contained a 5′ 6-FAM modification and a 3′ IOWA Black FQ modification.

T1 sequence (O75460 19-977): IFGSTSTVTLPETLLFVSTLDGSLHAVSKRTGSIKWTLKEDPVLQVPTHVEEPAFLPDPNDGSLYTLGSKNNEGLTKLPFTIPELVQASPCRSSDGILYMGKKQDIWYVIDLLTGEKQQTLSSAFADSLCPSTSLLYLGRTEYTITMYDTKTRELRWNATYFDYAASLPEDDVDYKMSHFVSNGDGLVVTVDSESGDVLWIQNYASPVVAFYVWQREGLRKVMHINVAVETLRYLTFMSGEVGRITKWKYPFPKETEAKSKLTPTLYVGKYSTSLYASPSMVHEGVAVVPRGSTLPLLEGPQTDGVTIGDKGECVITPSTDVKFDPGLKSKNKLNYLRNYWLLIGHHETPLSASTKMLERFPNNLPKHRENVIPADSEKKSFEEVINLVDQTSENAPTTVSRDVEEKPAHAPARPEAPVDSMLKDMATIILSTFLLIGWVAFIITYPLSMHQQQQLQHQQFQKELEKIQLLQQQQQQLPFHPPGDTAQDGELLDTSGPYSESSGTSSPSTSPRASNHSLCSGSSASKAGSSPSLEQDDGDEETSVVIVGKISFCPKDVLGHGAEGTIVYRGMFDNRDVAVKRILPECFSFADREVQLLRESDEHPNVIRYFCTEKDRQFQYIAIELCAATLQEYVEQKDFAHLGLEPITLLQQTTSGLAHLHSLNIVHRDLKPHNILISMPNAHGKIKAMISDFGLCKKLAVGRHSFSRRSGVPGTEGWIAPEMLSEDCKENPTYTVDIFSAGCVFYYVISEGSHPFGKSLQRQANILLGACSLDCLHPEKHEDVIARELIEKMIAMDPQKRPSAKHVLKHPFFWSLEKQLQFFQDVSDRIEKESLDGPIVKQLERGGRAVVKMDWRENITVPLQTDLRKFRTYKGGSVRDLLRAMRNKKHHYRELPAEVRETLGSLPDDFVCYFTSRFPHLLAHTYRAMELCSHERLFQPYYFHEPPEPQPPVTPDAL

Row | EC50 (IRE1a [1]) [nM] | IC50 (IRE1a [2]) [nM] | SMILES
1 | 5 to 50 | ≤ 5 | CCc1cc(-c2cc(NC(=O)Cc3cc(C(F)(F)F)ccc3OC)nn2C)cc2cnc(N[C@H]3CC[C@H](N)CC3)nc12 [Compound 43, N-(5-(2-(((1r,4r)-4-aminocyclohexyl)amino)-8-ethylquinazolin-6-yl)-1-methyl-1H-pyrazol-3-yl)-2-(2-methoxy-5-(trifluoromethyl)phenyl)acetamide]
2 | 50 to 100 | ≤ 5 | CCc1cc(-c2cc(NC(=O)Cc3cccc(C(F)(F)F)c3)nn2C)cc2cnc(N[C@H]3CC[C@H](N)CC3)nc12 [Compound 2, N-(5-(2-(((1r,4r)-4-aminocyclohexyl)amino)-8-ethylquinazolin-6-yl)-1-methyl-1H-pyrazol-3-yl)-2-(3-(trifluoromethyl)phenyl)acetamide]
3 | > 100 | 5 to 50 | CCc1cc(-c2cc(NC(=O)Cc3cc(F)ccc3C(F)(F)F)nn2C)cc2cnc(N[C@H]3CC[C@H](N)CC3)nc12 [Compound 13, N-(5-(2-(((1r,4r)-4-aminocyclohexyl)amino)-8-ethylquinazolin-6-yl)-1-methyl-1H-pyrazol-3-yl)-2-(5-fluoro-2-(trifluoromethyl)phenyl)acetamide]
4 | > 100 | 5 to 50 | CCc1cc(-c2cc(NC(=O)Cc3ccc(Cl)c(C(F)(F)F)c3)nn2C)cc2cnc(N[C@H]3CC[C@H](N)CC3)nc12 [Compound 18, N-(5-(2-(((1r,4r)-4-aminocyclohexyl)amino)-8-ethylquinazolin-6-yl)-1-methyl-1H-pyrazol-3-yl)-2-(4-chloro-3-(trifluoromethyl)phenyl)acetamide]
5 | 5 to 50 | ≤ 5 | CCc1cc(-c2cc(NC(=O)Nc3cccc(C(F)(F)F)c3)nn2C)cc2cnc(N[C@H]3CC[C@H](N)CC3)nc12 [Compound 19, 1-(5-(2-(((1r,4r)-4-aminocyclohexyl)amino)-8-ethylquinazolin-6-yl)-1-methyl-1H-pyrazol-3-yl)-3-(3-(trifluoromethyl)phenyl)urea]
6 | 5 to 50 | ≤ 5 | CCc1cc(-c2cc(NC(=O)Cc3ccc(OCCCNC)c(C(F)(F)F)c3)nn2C)cc2cnc(N[C@H]3CC[C@H](N)CC3)nc12 [Compound 30, N-(5-(2-(((1r,4r)-4-aminocyclohexyl)amino)-8-ethylquinazolin-6-yl)-1-methyl-1H-pyrazol-3-yl)-2-(4-(3-(methylamino)propoxy)-3-(trifluoromethyl)phenyl)acetamide]
7 | > 100 | 5 to 50 | CCc1cc(-c2cc(NC(=O)C(C)c3cccc(C(F)(F)F)c3)nn2C)cc2cnc(N[C@H]3CC[C@H](N)CC3)nc12 (stereo partly drawn) [Compound 25, N-(5-(2-(((1r,4r)-4-aminocyclohexyl)amino)-8-ethylquinazolin-6-yl)-1-methyl-1H-pyrazol-3-yl)-2-(3-(trifluoromethyl)phenyl)propanamide]
8 | ≤ 5 | ≤ 5 | CCc1cc(-c2cc(NC(=O)Nc3ccc(OCCCNC)c(C(F)(F)F)c3)nn2C)cc2cnc(N[C@H]3CC[C@H](N)CC3)nc12 [Compound 29, 1-(5-(2-(((1r,4r)-4-aminocyclohexyl)amino)-8-ethylquinazolin-6-yl)-1-methyl-1H-pyrazol-3-yl)-3-(4-(3-(methylamino)propoxy)-3-(trifluoromethyl)phenyl)urea]
9 | > 100 | > 100 | CCc1cc(-c2cc(NC(=O)Cc3cc(C(F)(F)F)ccc3C(F)(F)F)nn2C)cc2cnc(N[C@H]3CC[C@H](NC(=O)COC)CC3)nc12 [Compound 42, 2-(2,5-bis(trifluoromethyl)phenyl)-N-(5-(8-ethyl-2-(((1r,4r)-4-(2-methoxyacetamido)cyclohexyl)amino)quinazolin-6-yl)-1-methyl-1H-pyrazol-3-yl)acetamide]
10 | 5 to 50 | ≤ 5 | CCc1cc(-c2cc(NC(=O)Cc3cccc(C(F)(F)F)c3)nn2C)cc2cnc(N[C@H]3CC[C@H](N(C)C)CC3)nc12 [Compound 39, N-(5-(2-(((1r,4r)-4-(dimethylamino)cyclohexyl)amino)-8-ethylquinazolin-6-yl)-1-methyl-1H-pyrazol-3-yl)-2-(3-(trifluoromethyl)phenyl)acetamide]
11 | > 100 | ≤ 5 | CCc1cc(-c2cc(NC(=O)Cc3ccc(C(F)(F)F)cc3)nn2C)cc2cnc(N[C@H]3CC[C@H](N)CC3)nc12 [Compound 6, N-(5-(2-(((1r,4r)-4-aminocyclohexyl)amino)-8-ethylquinazolin-6-yl)-1-methyl-1H-pyrazol-3-yl)-2-(4-(trifluoromethyl)phenyl)acetamide]
12 | 5 to 50 | ≤ 5 | CCc1cc(-c2cc(NC(=O)Cc3cc(C(F)(F)F)ccc3C)nn2C)cc2cnc(N[C@H]3CC[C@H](N)CC3)nc12 [Compound 34, N-(5-(2-(((1r,4r)-4-aminocyclohexyl)amino)-8-ethylquinazolin-6-yl)-1-methyl-1H-pyrazol-3-yl)-2-(2-methyl-5-(trifluoromethyl)phenyl)acetamide]
13 | > 100 | > 100 | CCc1cc(-c2cc(NC(=O)Cc3cc(C(F)(F)F)ccc3C(F)(F)F)nn2C)cc2cnc(N[C@H]3CC[C@H](NC(C)=O)CC3)nc12 [Compound 41, N-(5-(2-(((1r,4r)-4-acetamidocyclohexyl)amino)-8-ethylquinazolin-6-yl)-1-methyl-1H-pyrazol-3-yl)-2-(2,5-bis(trifluoromethyl)phenyl)acetamide]
14 | > 100 | ≤ 5 | CCc1cc(-c2cc(NC(=O)Cc3ccc(C(F)(F)F)c(F)c3)nn2C)cc2cnc(N[C@H]3CC[C@H](N)CC3)nc12 [Compound 7, N-(5-(2-(((1r,4r)-4-aminocyclohexyl)amino)-8-ethylquinazolin-6-yl)-1-methyl-1H-pyrazol-3-yl)-2-(3-fluoro-4-(trifluoromethyl)phenyl)acetamide]
15 | ≤ 5 | ≤ 5 | CCc1cc(-c2cc(NC(=O)Cc3ccc(OC4CCN(C)CC4)c(C(F)(F)F)c3)nn2C)cc2cnc(N[C@H]3CC[C@H](N)CC3)nc12 [Compound 32, N-(5-(2-(((1r,4r)-4-aminocyclohexyl)amino)-8-ethylquinazolin-6-yl)-1-methyl-1H-pyrazol-3-yl)-2-(4-((1-methylpiperidin-4-yl)oxy)-3-(trifluoromethyl)phenyl)acetamide]
16 | > 100 | > 100 | Cn1nc(NC(=O)Cc2cccc(C(F)(F)F)c2)cc1-c1cc2cnc(N[C@H]3CC[C@H](N)CC3)nc2c2ccccc12 [Compound 31, N-(5-(2-(((1r,4r)-4-aminocyclohexyl)amino)benzo[h]quinazolin-6-yl)-1-methyl-1H-pyrazol-3-yl)-2-(3-(trifluoromethyl)phenyl)acetamide]
17 | 5 to 50 | ≤ 5 | CCc1cc(-c2cc(NC(=O)Nc3cc(C(F)(F)F)ccc3C(F)(F)F)nn2C)cc2cnc(N[C@H]3CC[C@H](N)CC3)nc12 [Compound 35, 1-(5-(2-(((1r,4r)-4-aminocyclohexyl)amino)-8-ethylquinazolin-6-yl)-1-methyl-1H-pyrazol-3-yl)-3-(2,5-bis(trifluoromethyl)phenyl)urea]
18 | ≤ 5 | ≤ 5 | CCc1cc(-c2cc(NC(=O)Nc3ccc(OC4CCN(C)CC4)c(C(F)(F)F)c3)nn2C)cc2cnc(N[C@H]3CC[C@H](N)CC3)nc12 [Compound 4; Formic Acid, 1-(5-(2-(((1r,4r)-4-aminocyclohexyl)amino)-8-ethylquinazolin-6-yl)-1-methyl-1H-pyrazol-3-yl)-3-(4-((1-methylpiperidin-4-yl)oxy)-3-(trifluoromethyl)phenyl)urea]

From US10392367B2, “IRE1 small molecule inhibitors” (QUENTIS THERAPEUTICS, INC., priority 2017, dated 2019)
